Paper PMC9635925, “Biological screening of a unique drug library targeting MRGPRX2” (Frontiers in Immunology, 2022)
Where a chain is given by its changes, count along the chain named. Counter-ions that a name gives are not always drawn.

Columns and labels:
[1] = molecular target: T1, MRGPRX2-WT (wild-type MRGPRX2 receptor) (Homo sapiens, UniProt Q96LB1); assay: Primary HTS, Ca2+ mobilization (fluorescence ratio, B-score) in HEK293-Gα15 cells stably expressing wild-type MRGPRX2; type: cell-based; details: 10 μM compound
T1 construct: expressed in transfected cells
T1 sequence (Q96LB1 1-330): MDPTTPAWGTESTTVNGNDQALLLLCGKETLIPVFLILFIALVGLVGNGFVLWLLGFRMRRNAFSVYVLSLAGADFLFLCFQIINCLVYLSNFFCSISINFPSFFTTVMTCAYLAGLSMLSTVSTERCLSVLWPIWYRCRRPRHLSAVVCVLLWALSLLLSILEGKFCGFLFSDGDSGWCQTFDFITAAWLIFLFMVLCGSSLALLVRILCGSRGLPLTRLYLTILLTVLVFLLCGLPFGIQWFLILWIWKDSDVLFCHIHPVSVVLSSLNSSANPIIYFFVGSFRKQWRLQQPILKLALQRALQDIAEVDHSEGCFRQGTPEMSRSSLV
Description: (§1) We performed an experimental HTS on the Johns Hopkins Drug Library, which includes 1,811 (57%) FDA-approved drugs among 3,456 total compounds (28% of all known drugs worldwide) ([15]). We performed the HTS at the Johns Hopkins University ChemBioCORE Facility and employed HEK293-Gα15 cell lines that stably expressed MRGPRX2 protein.
(§2) We utilized 10 μM compounds (each compound was tested in triplicate) and calculated the compound effect using the signal-to-background fluorescence ratio (see Supplementary Methods).
(§3) In the HTS, we determined MRGPRX2 activation by a Ca^2+ mobilization assay that recorded a fluorescence change by utilizing a Functional Drug Screening System (FDSS 6000; Hamamatsu); we evaluated the compound effect using the calculated fluorescence ratio. We further applied the B-score normalization, which provided robust corrections for variation in fluorescence ratio ([22]).
(§4) We performed an experimental high-throughput screening (HTS) on the Johns Hopkins Drug Library (JHDL), which includes 1,811 (57%) FDA-approved drugs among 3,456 total compounds (28% of all known drugs worldwide). The remaining compounds in JHDL are catalogued in one or more of the resources below: British Approved Names (BAN); Dénominations Communes Françaises (DCF); International Nonproprietary Names (INN); Japanese Adopted Names (JAN); MI (Merck Index); National Formulary drug name (NF); and United States Accepted Names (USAN). The JHU drug library is stocked in 96 well plates at 10 mM in 100% DMSO and stored at -80 °C. We used a final concentration of 10 uM for each compound and DMSO concentration of 0.1% (tested in triplicate). […] We evaluated compound effect using the calculated fluorescence ratio. We further calculated B-scores, which are a relative potency score similar to Z scores in that they are the ratio of an adjusted raw value in the numerator to a measure of variability in the denominator.

[2] = molecular target: T2, MRGPRX2-MUT (MRGPRX2 N62S mutation) (Homo sapiens, UniProt Q96LB1, N62S); assay: Primary HTS, Ca2+ mobilization (fluorescence ratio, B-score) in HEK293-Gα15 cells stably expressing the MRGPRX2 N62S mutation; type: cell-based; details: for B-scores (MUT): 10 μM compound, MRGPRX2-MUT (N62S) cells; for Change of B-scores (%): 10 μM
T2 construct: expressed in transfected cells
T2 sequence (Q96LB1 1-330 N62S): T1 sequence (Q96LB1 1-330) with N62S
Description: as §1, §2, §3, §4

[3] = MRGPRX2-MUT in comparison to MRGPRX2-WT cells, Supplementary Table 1
[4] = MRGPRX2-MUT versus MRGPRX2-WT cells, Supplementary Table 2
[5] = MRGPRX2-MUT in comparison to MRGPRX2-WT cells, Table 1

| Structure (SMILES) | B-scores (WT) ([1]; Supplementary Table 1) | B-scores (WT) ([1]; Supplementary Table 2) | B-scores (MUT) ([2]; Supplementary Table 1) | B-scores (MUT) ([2]; Supplementary Table 2) | Change of B-scores (%) [2, 3] [%] | Change of B-scores (%) [2, 4] [%] | B-scores (WT) ([1]; Table 1) | B-scores (MUT) ([2]; Table 1) | Change of B-scores (%) [2, 5] [%] |
| --- | --- | --- | --- | --- | --- | --- | --- | --- | --- |
| CC(=O)c1ccc2c(c1)N(CCCN(C)C)c1ccccc1S2 [Acepromazine Maleate] | 44.01 | 44.01 | 28.97 | 28.97 | -34.19 | -34.19 | – | – | – |
| CC(=O)c1ccc2c(c1)N(CCCN(C)C)c1ccccc1S2 [Acepromazine] | – | 22.99 | – | 43.26 | – | 88.18 | – | – | – |
| CC(=O)OCC[N+](C)(C)C [Acetylcholine Chloride] | 47.11 | 47.11 | 65.23 | 65.23 | 38.45 | 38.45 | – | – | – |
| Nc1ncnc2c1ncn2[C@@H]1O[C@H](CO)[C@@H](O)[C@H]1O [Adenosine] | 35.61 | – | 0.32 | – | -99.09 | – | – | – | – |
| CN(C)CCC=C1c2ccccc2CCc2ccccc21 [Amitriptyline hydrochloride] | – | 16.31 | – | 1.83 | – | -88.77 | – | – | – |
| CCOC(=O)C1=C(COCCN)NC(C)=C(C(=O)OC)C1c1ccccc1Cl (stereo not drawn) [Amlodipine Besylate] | 31.57 | – | 3.87 | – | -87.76 | – | – | – | – |
| COC(=O)C1=CCCN(C)C1 [Arecoline Hydrobromide] | 28.78 | – | 58.08 | – | 101.79 | – | – | – | – |
| CN1[C@@H]2CC[C@H]1C[C@@H](OC(=O)C(CO)c1ccccc1)C2 (stereo partly drawn) [Atropine Sulfate Monohydrate] | 24.16 | 24.16 | 0.90 | 0.9 | -96.27 | -96.27 | – | – | – |
| CN1[C@@H]2CC[C@H]1C[C@@H](OC(=O)C(CO)c1ccccc1)C2 (stereo partly drawn) [Atropine Sulfate] | 41.43 | 41.43 | – | -0.13 | -100.31 | -100.31 | – | – | – |
| CN1[C@@H]2CC[C@H]1C[C@@H](OC(=O)C(CO)c1ccccc1)C2 (stereo partly drawn) [Atropine] | 18.59 | 18.59 | – | -0.95 | -105.08 | -105.08 | – | – | – |
| CN1CCCC(n2nc(Cc3ccc(Cl)cc3)c3ccccc3c2=O)CC1 (stereo not drawn) [Azelastine Hydrochloride] | 36.21 | – | 3.47 | – | -90.42 | – | 36.21 | 3.47 | -90.42 |
| CN1[C@@H]2CC[C@H]1C[C@@H](OC(c1ccccc1)c1ccccc1)C2 [Benztropine Methanesulfonate] | 26.25 | – | 2.81 | – | -89.29 | – | – | – | – |
| CN1[C@@H]2CC[C@H]1C[C@@H](OC(c1ccccc1)c1ccccc1)C2 [Benztropine] | 21.42 | – | 1.35 | – | -93.68 | – | – | – | – |
| CC(C[N+](C)(C)C)OC(N)=O (stereo not drawn) [Bethanechol Chloride] | 19.27 | – | 37.55 | – | 94.89 | – | – | – | – |
| CN(C)CCOC(c1ccc(Cl)cc1)c1ccccn1 (stereo not drawn) [Carbinoxamine Maleate] | 38.93 | – | 1.49 | 1.49 | -96.18 | -94.84 | 38.93 | 1.49 | -96.18 |
| CC(=O)O.CC(=O)O.CC[C@H](C)C[C@H](C)CCCCCCCCC(=O)N[C@H]1C[C@@H](O)[C@@H](NCCN)NC(=O)[C@@H]2[C@@H](O)CCN2C(=O)[C@H]([C@H](O)CCN)NC(=O)[C@H]([C@H](O)[C@@H](O)c2ccc(O)cc2)NC(=O)[C@@H]2C[C@@H](O)CN2C(=O)[C@H]([C@@H](C)O)NC1=O [Caspofungin acetate] | 29.98 | – | 16.90 | – | -43.63 | – | – | – | – |
| COc1ccc2cc1Oc1ccc(cc1)C[C@H]1c3c(cc4c(c3Oc3cc5c(cc3OC)CCN(C)[C@@H]5C2)OCO4)CCN1C [Cepharanthine] | 19.73 | – | 1.14 | – | -94.20 | – | 19.73 | 1.14 | -94.20 |
| CN(C)CCN(Cc1ccc(Cl)cc1)c1ccccn1.Cl [Chloropyramine Hydrochloride] | – | 14.6 | – | 3.24 | – | -77.83 | – | – | – |
| CN(C)CCC(c1ccc(Cl)cc1)c1ccccn1 (stereo not drawn) [Chlorpheniramine] | – | 9.6 | – | 0.88 | – | -90.88 | – | – | – |
| CN(C)CCCN1c2ccccc2Sc2ccc(Cl)cc21 [Chlorpromazine Hydrochloride] | – | 7.97 | – | 2.69 | – | -66.27 | – | – | – |
| CN(C)CCCN1c2ccccc2Sc2ccc(Cl)cc21 [Chlorpromazine] | – | 10.2 | – | -0.05 | – | -100.54 | – | – | – |

Results, then the compound that gave them:

| B-scores (WT) ([1]; Supplementary Table 1) | B-scores (WT) ([1]; Supplementary Table 2) | B-scores (MUT) ([2]; Supplementary Table 1) | B-scores (MUT) ([2]; Supplementary Table 2) | Change of B-scores (%) [2, 3] [%] | Change of B-scores (%) [2, 4] [%] | B-scores (WT) ([1]; Table 1) | B-scores (MUT) ([2]; Table 1) | Change of B-scores (%) [2, 5] [%] | Structure (SMILES) |
| --- | --- | --- | --- | --- | --- | --- | --- | --- | --- |
| 23.36 | 23.36 | 80.61 | 80.61 | 245.01 | 245.01 | – | – | – | CC(=O)OCC[N+](C)(C)C [Acetylcholine] |
| – | 12.09 | – | 2.96 | – | -75.51 | – | – | – | CC(C)(C)NCC(O)c1ccc(O)c(CO)c1.CC(C)(C)NCC(O)c1ccc(O)c(CO)c1.O=S(=O)(O)O (stereo not drawn) [Albuterol sulfate] |
| 30.77 | – | 1.68 | – | -94.54 | – | 30.77 | 1.68 | -94.54 | CCCCC(CC)CNC(=N)NC(=N)NCCCCCCNC(=N)NC(=N)NCC(CC)CCCC (stereo not drawn) [Alexidine Hydrochloride] |
| 18.49 | – | 2.98 | – | -83.88 | – | – | – | – | CN(C)CCc1c[nH]c2ccc(CS(=O)(=O)N3CCCC3)cc12 [Almotriptan] |
| 42.04 | – | 11.08 | – | -73.65 | – | – | – | – | CCCCC[C@H](O)/C=C/[C@H]1[C@H](O)CC(=O)[C@@H]1CCCCCCC(=O)O [Alprostadil] |
| – | 11.37 | – | -0.05 | – | -100.41 | – | – | – | CN(C)CCOC(c1ccccc1)c1ccc(Br)cc1.Cl (stereo not drawn) [Bromazine hydrochloride] |
| 18.22 | 18.22 | 0.64 | 0.64 | -96.48 | -96.48 | 18.22 | 0.64 | -96.48 | CN(C)CCC(c1ccc(Br)cc1)c1ccccn1 (stereo not drawn) [Brompheniramine] |
| 42.55 | 42.55 | 63.57 | 63.57 | 49.41 | 49.41 | – | – | – | C[N+](C)(C)CCOC(N)=O [Carbachol] |
| – | 11.13 | – | 0.12 | – | -98.93 | – | – | – | CN(C)CCOC(c1ccc(Cl)cc1)c1ccccn1 (stereo not drawn) [Carbinoxamine] |
